This assay deals with T1, Nuclear receptor ROR-beta (Homo sapiens, UniProt Q92753).
T1 sequence (Q92753 whole entry): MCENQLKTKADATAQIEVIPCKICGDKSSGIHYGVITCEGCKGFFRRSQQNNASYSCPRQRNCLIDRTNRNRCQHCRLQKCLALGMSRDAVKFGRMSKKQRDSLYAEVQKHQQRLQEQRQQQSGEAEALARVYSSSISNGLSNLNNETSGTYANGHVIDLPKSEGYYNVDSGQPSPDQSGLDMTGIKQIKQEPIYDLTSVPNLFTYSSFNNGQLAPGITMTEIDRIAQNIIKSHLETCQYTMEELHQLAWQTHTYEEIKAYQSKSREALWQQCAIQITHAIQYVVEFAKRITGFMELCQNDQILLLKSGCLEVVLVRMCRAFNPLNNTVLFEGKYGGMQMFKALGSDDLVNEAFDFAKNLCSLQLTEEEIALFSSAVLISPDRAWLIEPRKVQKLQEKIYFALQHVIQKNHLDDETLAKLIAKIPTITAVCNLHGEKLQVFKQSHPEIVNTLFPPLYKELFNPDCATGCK
The experiment in a line: Inhibition of Gal4-tagged RORbeta LBD (unknown origin) by cell based luciferase reporter gene assay.

Our source for the IC50 values is ChEMBL document CHEMBL4321852, “Structure-Based and Property-Driven Optimization of N-Aryl Imidazoles toward Potent and Selective Oral RORγt Inhibitors” (J Med Chem, 2019).

Usually IC50 stands for the midpoint of a concentration-inhibition curve. Low values mean greater potency, high ones weaker potency.

SMILES strings stand for the structures.

Take `Cc1c(C2(C(F)(F)F)CC2)nc(C2CC2)n1-c1c(Cl)ccc(N2CC3(CC(C(=O)O)C3)C2)c1Cl` (single isomer, unassigned; atropisomer): the IC50 was > 10 µM.
